Results: patent publication US20220098159A1, “CARBAMATE DERIVATIVES AND USES THEREOF” (Nodthera Limited, priority 2019, published 2022)
Where two headings read alike, the source gives them in different places.

System: IL-1β release upon NLRP3 activation in peripheral blood mononuclear cells (PBMC)
Assay: PBMC IC50 determination assay (inhibition of IL-1β release upon NLRP3 activation)
Type: cell-based
Details: Homo sapiens
Protocol: The compounds of the present disclosure were tested for their inhibitory activity against IL-1β release upon NLRP3 activation in peripheral blood mononuclear cells (PBMC).
Protocol A. PBMC were isolated from buffy coats by density gradient centrifugation on Histopaque-1077 (Sigma, cat no. 10771). Isolated cells were seeded into the wells of a 96-well plate and incubated for 3 h with lipopolysaccharide (LPS). Following medium exchange, the compounds of the present disclosure were added (a single compound per well) and the cells were incubated for 30 min. Next, the cells were stimulated either with ATP (5 mM) or nigericin (10 μM) for 1 h and the cell culture media from the wells were collected for further analysis.
The release of IL-1β into the media was determined by a quantitative detection of IL-1β in the media using an IL-1β enzyme-linked immunosorbent assay (ELISA) Ready-SET-Go!, eBioscience cat. No. 88-7261-88. Briefly, in a first step, high affinity binding plates (Corning, Costar 9018 or NUNC Maxisorp Cat No. 44-2404) were coated overnight at 4° C. with specific capture antibody included in the kit (anti-human IL-1β ref. 14-7018-68). Subsequently, plates were blocked with blocking buffer for 1 h at room temperature (rt) and after washing with a buffer (PBS with 0.05% Tween-20) incubated with protein standard and culture media. After 2 h of incubation at rt, plates were washed and incubated with biotinylated detection antibody included in the kit (anti-human IL-1β Biotin ref. 33-7110-68) for 1 h at rt. Plates were washed and incubated with HRP-streptavidin for 30 min at rt and washed again. The signal was developed after addition of 3,3′,5,5′-tetramethylbenzidine-peroxidase (TMB) until colour appeared and the reaction was stopped by 2 M H2SO4. A microplate spectrophotometer (BioTek) was used to detect signals with 450 nm. The detection range of IL-1β ELISA was 2-150 ng/ml.
Protocol B. PBMC were isolated from buffy coats by density gradient centrifugation on Histopaque-1077 (Sigma, cat no. 10771). Isolated cells were seeded into the wells (280,000 cells/well) of a 96-well plate and incubated for 3 h with lipopolysaccharide (LPS, 1 μg/ml diluted 1000× from a 1 mg/ml stock solution). The compounds of the present disclosure were added (a single compound per well) and the cells were incubated for 30 min. Next, the cells were stimulated with ATP (5 mM final concentration diluted 20× from a 100 mM stock solution) for 1 h and the cell culture media from the wells were collected for further analysis.
The release of IL-1β into the media was determined by quantitative detection of IL-1β in the media using HTRF®, CisBio cat. No. 62HIL1BPEH. Briefly, cell culture supernatant were dispensed directly into the assay plate containing antibodies labelled with the HTRF® donor and acceptor. A microplate spectrophotometer (BMG) was used to detect signals at 655 nm and 620 nm. The detection range of IL-1β HTRF® was 39-6500 pg/ml.

[1] = PBMC, read-out: Average PBMC IC50 (μM)
[2] = PBMC from buffy coats, LPS 3 h, compound 30 min, then ATP (5 mM) or nigericin (10 μM) 1 h, IL-1β in media by ELISA (Protocol A) or HTRF (Protocol B), read-out: Average PBMC IC50

Compound | IC50 [1] [µM] | IC50 [2] [µM]
CCCC(NC(=O)OC(Cc1ncccn1)C(=O)OC(C)C)c1ccc(C(F)(F)F)cc1 (centres unmarked) [Compound 21, Propan-2-yl 3-(pyrimidin-2-yl)-2-[({1-[4-(trifluoromethyl)phenyl]butyl}carbamoyl)oxy]propanoate] | 1 to 3 | –
CCOC(=O)C(Cn1cccn1)OC(=O)N[C@@H](C)c1ccc(Cl)cc1 (stereo partly drawn) [Compound 1, Ethyl 2-({[(1S)-1-(4-chlorophenyl)ethyl]carbamoyl}oxy)-3-(1H-pyrazol-1-yl)propanoate] | – | 10 to 50
CC(C)OC(=O)[C@@H](Cn1cncn1)OC(=O)N[C@@H](C)c1ccc(C(F)(F)F)c(F)c1 [Compound 9, Propan-2-yl (2R)-2-({[(1S)-1-[3-fluoro-4-(trifluoromethyl)phenyl]ethyl]carbamoyl}oxy)-3-(1H-1,2,4-triazol-1-yl)propanoate] | – | < 1
CC(C)OC(=O)[C@@H](Cn1cncn1)OC(=O)N[C@@H](C)c1ccc(OCC(F)(F)F)cc1 [Compound 7, Propan-2-yl (2R)-3-(1H-1,2,4-triazol-1-yl)-2-({[(1S)-1-[4-(2,2,2-trifluoroethoxy)phenyl]ethyl]carbamoyl}oxy)propanoate] | – | < 1
CC(C)OC(=O)C(Cc1ncccn1)OC(=O)N[C@@H](C)c1ccc(Cl)cc1 (stereo partly drawn) [Compound 3, Propan-2-yl 2-({[(1S)-1-(4-chlorophenyl)ethyl]carbamoyl}oxy)-3-(pyrimidin-2-yl)propanoate] | – | < 1
CC(C)OC(=O)[C@@H](Cc1ncccn1)OC(=O)N[C@@H](C)c1ccc(C(F)(F)F)cc1 [Compound 23, Propan-2-yl (2R)-3-(pyrimidin-2-yl)-2-({[(1S)-1-[4-(trifluoromethyl)phenyl]ethyl]carbamoyl}oxy)propanoate] | – | < 1
CC(C)OC(=O)[C@@H](Cn1cncn1)OC(=O)N[C@@H](C)c1ccc(C(C)C)cc1 [Compound 13, Propan-2-yl (2R)-2-({[(1S)-1-[4-(propan-2-yl)phenyl]ethyl]carbamoyl}oxy)-3-(1H-1,2,4-triazol-1-yl)propanoate] | < 1 | –
CC(C)OC(=O)[C@@H](Cn1cncn1)OC(=O)N[C@H](C)c1ccc(C(F)(F)F)nc1 [Compound 15, Propan-2-yl (2R)-3-(1H-1,2,4-triazol-1-yl)-2-({[(1R)-1-[6-(trifluoromethyl)pyridin-3-yl]ethyl]carbamoyl}oxy)propanoate] | 10 to 50 | –
CC(C)OC(=O)[C@@H](Cn1cncn1)OC(=O)N[C@@H](C)c1ccc(C(F)(F)F)cc1 [Compound 11, Propan-2-yl (2R)-3-(1H-1,2,4-triazol-1-yl)-2-({[(1S)-1-[4-(trifluoromethyl)phenyl]ethyl]carbamoyl}oxy)propanoate] | – | < 1
Cc1cc(C(F)(F)F)ccc1C(C)NC(=O)OC(Cc1ncccn1)C(=O)OC(C)C (centres unmarked) [Compound 20, Isopropyl 2-[1-[2-methyl-4-(trifluoromethyl)phenyl]ethylcarbamoyloxy]-3-pyrimidin-2-yl-propanoate] | – | < 1
COc1cc(C(F)(F)F)ccc1C(C)NC(=O)OC(Cc1ncccn1)C(=O)OC(C)C (centres unmarked) [Compound 19, Propan-2-yl 2-[({1-[2-methoxy-4-(trifluoromethyl)phenyl]ethyl}carbamoyl)oxy]-3-(pyrimidin-2-yl)propanoate] | – | < 1
CC(C)OC(=O)C(Cc1ncccn1)OC(=O)N[C@@H](C)c1ccc(C(F)(F)F)cc1 (stereo partly drawn) [Compound 5, Propan-2-yl 3-(pyrimidin-2-yl)-2-({[(1S)-1-[4-(trifluoromethyl)phenyl]ethyl]carbamoyl}oxy)propanoate] | – | < 1
CC(C)OC(=O)[C@@H](Cn1cncn1)OC(=O)N[C@@H](C)c1ccc(C2CC2)cc1 [Compound 10, Propan-2-yl (2R)-2-({[(1S)-1-(4-cyclopropylphenyl)ethyl]carbamoyl}oxy)-3-(1H-1,2,4-triazol-1-yl)propanoate] | < 1 | –
CCc1ccc([C@H](C)NC(=O)O[C@H](Cn2cncn2)C(=O)OC(C)C)cc1 [Compound 12, Propan-2-yl (2R)-2-({[(1S)-1-(4-ethylphenyl)ethyl]carbamoyl}oxy)-3-(1H-1,2,4-triazol-1-yl)propanoate] | < 1 | –
CC(C)OC(=O)C(Cc1ncccn1)OC(=O)NC(C)c1ccc(C(F)(F)F)cc1Cl (centres unmarked) [Compound 16, Isopropyl 2-[1-[2-chloro-4-(trifluoromethyl)phenyl]ethylcarbamoyloxy]-3-pyrimidin-2-yl-propaneate] | – | < 1
C[C@H](NC(=O)O[C@H](Cc1ncccn1)C(=O)O)c1ccc(C(F)(F)F)cc1 [Compound 24, (2R)-3-(Pyrimidin-2-yl)-2-({[(1S)-1-[4-(trifluoromethyl)phenyl]ethyl]carbamoyl}oxy)propanoic acid] | – | 3 to 10
CC(C)OC(=O)[C@@H](Cn1cncn1)OC(=O)NC(C)c1ncc(C(F)(F)F)cn1 (stereo partly drawn) [Compound 18, Propan-2-yl (2R)-3-(1H-1,2,4-triazol-1-yl)-2-[({1-[5-(trifluoromethyl)pyrimidin-2-yl]ethyl}carbamoyl)oxy]propanoate] | – | 3 to 10
CC(C)OC(=O)C(Cc1ncccn1)OC(=O)N[C@@H](C)c1ccc(C#N)cc1 (stereo partly drawn) [Compound 4, Propan-2-yl 2-({[(1S)-1-(4-cyanophenyl)ethyl]carbamoyl}oxy)-3-(pyrimidin-2-yl)propanoate] | – | 1 to 3
CC(C)OC(=O)[C@@H](Cc1ncccn1)OC(=O)N[C@@H](C)c1ccc(C(F)(F)F)cc1Cl [Compound 25, Propan-2-yl (2R)-2-({[(1S)-1-[2-chloro-4-(trifluoromethyl)phenyl]ethyl]carbamoyl}oxy)-3-(pyrimidin-2-yl)propanoate] | – | < 1
CC(C)OC(=O)[C@@H](Cc1ncccn1)OC(=O)N(C)[C@@H](C)c1ccc(C(F)(F)F)cc1Cl [Compound 27, Propan-2-yl (2R)-2-({[(1S)-1-[2-chloro-4-(trifluoromethyl)phenyl]ethyl](methyl)carbamoyl}oxy)-3-(pyrimidin-2-yl)propanoate] | – | 1 to 3
CC(C)OC(=O)[C@@H](Cn1cncn1)OC(=O)N[C@@H](C)c1ccc(C(F)(F)F)nc1 [Compound 14, Propan-2-yl (2R)-3-(1H-1,2,4-triazol-1-yl)-2-({[(1S)-1-[6-(trifluoromethyl)pyridin-3-yl]ethyl]carbamoyl}oxy)propanoate] | 10 to 50 | –
CCc1cc(C(F)(F)F)ccc1C(C)NC(=O)OC(Cc1ncccn1)C(=O)OC(C)C (centres unmarked) [Compound 22, Propan-2-yl 2-[({1-[2-ethyl-4-(trifluoromethyl)phenyl]ethyl}carbamoyl)oxy]-3-(pyrimidin-2-yl)propanoate] | – | < 1
C[C@H](NC(=O)O[C@H](Cc1ncccn1)C(=O)O)c1ccc(C(F)(F)F)cc1Cl [Compound 26, (2R)-2-({[(1S)-1-[2-Chloro-4-(trifluoromethyl)phenyl]ethyl]carbamoyl}oxy)-3-(pyrimidin-2-yl)propanoic acid] | – | 3 to 10
CC(C)OC(=O)[C@@H](Cn1cncn1)OC(=O)N[C@@H](C)c1ccc(COc2ccccc2)cc1 [Compound 8, Propan-2-yl (2R)-2-({[(1S)-1-[4-(phenoxymethyl)phenyl]ethyl]carbamoyl}oxy)-3-(1H-1,2,4-triazol-1-yl)propanoate] | – | 1 to 3
CC(C)OC(=O)C(Cc1ncccn1)OC(=O)N[C@@H](C)c1ccc(Cl)c(Cl)c1 (stereo partly drawn) [Compound 2, Propan-2-yl 2-({[(1S)-1-(3,4-dichlorophenyl)ethyl]carbamoyl}oxy)-3-(pyrimidin-2-yl)propanoate] | 10 to 50 | –
CC(C)OC(=O)[C@@H](Cn1cncn1)OC(=O)N[C@@H](C)c1ccc(C(C)(C)C)cc1 [Compound 6, Propan-2-yl (2R)-2-({[(1S)-1-(4-tert-butylphenyl)ethyl]carbamoyl}oxy)-3-(1H-1,2,4-triazol-1-yl)propanoate] | – | < 1
